We go through 1 compound from US6897316B2, “Substituted 2-phenyl-4-quinolone-3-carboxylic acid compounds and their use as antitumor agents” (China Medical University, priority 2003, dated 2005).

The subject of assay [1] is lung cancer cell line (A-549). In words: Preliminary cytotoxicity screening against lung cancer cell line A-549 (SRB assay). The assay is classed as cell-based, human. Particulars: Homo sapiens, A549; A-549; 50% reduction in absorbance at 562 nm relative to untreated cells, SRB assay; Table 1 (esters VII, acids IX); read-out: ED50 (cytotoxicity against A-549). On the procedure: (§1) Compounds were assayed for in vitro cytotoxicity in a panel of human tumor cell lines at the School of Pharmacy, University of North Carolina at Chapel Hill, according to procedures described previously [Lee, K. H., Lin, Y. M., Wu, T. S., Zhang, D. C., Yamagishi, T., Hayashi, T., Hall, I. H., Chang, J. J., Wu, R. Y., Yang, T. H. The cytotoxic principles of Prunella vulgaris, Psychotria serpens, and Hyptis capitata: Ursolic acid and related derivatives. Planta Med. 1988, 54, 308-11; Boyd, M. R. Status of the National Cancer Institute preclinical antitumor drug discovery screen: implications for selection of new agents for clinical trial. Devita, V. T., Jr. Hellman, S., Rosenberg, S. A., Eds, J. B. Cancer: Principles and Practice of Oncology Update, 1989, 3: pp1-12, Lippincoft: Philadephia; Monks, A., Scudiero, D., Skehan, P., Shoemaker, R., Paull, K., Vistica, D., Hose, C., Langley, J., Cronise, P., Vaigro-Wolff, A., Gray-Goodrich, M., Campbell, H., Mayo, J., Boyd, M. Feasibility of a high-flux anticancer drug screen using a diverse panel of cultured human tumor cell lines. J. Natl. Cancer Inst. 1991, 83, 757-66.] The cell lines included human ovarian cancer (1A9), ileocecal carcinoma (HCT-8), lung carcinoma (A-549), glioblastoma (U-87-MG), bone (HOS), epidermoid carcinoma of the naynx (KB), P-gp-expressing epidermoid carcinoma of the nasopharynx (KB-VIN), and melanoma (SKMEL-2) cell line. The cytotoxic effects of each compound were obtained as EC50 values, which represent the molar drug concentrations required to cause 50% inhibition.
Preliminary screening of antitumor activity was based on the cytotoxicity tested in human long cancer (A-549) cell lines. […] Among 3-carboxylic acid derivatives (IX), the cytotoxicity was not remarkable when the m-position of 2-phenyl group was substituted by OCH3 group (IX-3, 7, 11). ED50 values were greater than 20 μg/mL. […] The antitumor activity was not good, if there was no substitution on the m-position of 2-phenyl group ([…]).
On the technique in general: In SRB staining, fixed cells bind dye roughly in proportion to their protein.

The test system of assay [2] is glioblastoma (U87-MG) cell line. In words: Activity against HTCL replication, U87-MG. The assay is classed as cell-based, human. The conditions noted are these: mean ED50. On the procedure:
as §1, with “The cell lines included human ovarian cancer (1A9), ileocecal carcinoma (HCT-8), lung carcinoma (A-549), glioblastoma (U-87-MG), bone (HOS), epidermoid carcinoma of the naynx (KB), P-gp-expressing epidermoid carcinoma of the nasopharynx (KB-VIN), and melanoma (SKMEL-2) cell line. The cytotoxic effects of each compound were obtained as EC50 values, which represent the molar drug concentrations required to cause 50% inhibition.” left out

≈ marks a conversion by molar mass, not a printed value.

In the case of `COc1ccc2[nH]c(-c3cccc(F)c3)c(C(=O)O)c(=O)c2c1` [IX-8, 3′-Fluoro-6-methoxy-2-phenyl-4-quinolone-3-carboxylic acid], in assay [1], the IC50 came to 0.19 µg/mL (≈ 0.606 µM). In addition, in assay [2], the “ED50 U87-MG” value worked out at 1.50 µg/mL (≈ 4.79 µM).
